# Entries after “also recorded” stand apart in the source; their conditions may differ.
# Tests used:
# adjuvant arthritis = test: Adjuvant arthritis induced with M. tuberculosis; assay type: in vivo, Lewis rats; details: for Inhibition of arthritis / Arthritis score (day 60): rat, in vivo; for Arthritis score (day 60): sc
# skin allografts = test: Skin allograft survival (SJL/J skin on (BALB/c×C57BL/6)F1 mice); assay type: in vivo; details: 10 mg/kg daily, saline control 10 days
# Experimental: FIG. 1. Treatment with heparin (0.05 mg/kg) prevents rejection of skin allografts. Mice of hybrid strain (BALB/c×C57BL/6)F1 were grafted with skin from allogeneic SJL/J mice. The mice (20 per group) were treated daily with subcutaneous injections of saline (squares) or with heparin ("Leo", 0.05 mg/kg; diamonds) and scored for skin graft survival. Median survival for the control group was 10 days while that for the heparin treated group was 24 days.
# FIG. 2. Treatment with N-desulfated, N-acetylated heparin (10 mg/kg) prevents rejection of skin allografts. Mice were grafted as described for FIG. 1 and treated daily with saline (squares) or N-desulfated, N-acetylated heparin (10 mg/kg; diamonds). The median survival of the skin allograft in the control group was 10 days while that in the treated group was 20 days.
# The median survival time of the skin grafts on control mice treated with saline was […] while that on mice treated with 0.05 mg/kg daily of heparin was 26 days with maximal survival to 32 days.
# [1] = system: experimental autoimmune encephalomyelitis (EAE); test: Experimental autoimmune encephalomyelitis (EAE) produced by anti-BP T lymphocytes; assay type: in vivo, Lewis rats; details: 10 mg/kg daily
# Description: EAE is an experimental autoimmune disease with some features reminiscent of multiple sclerosis in humans. The disease is caused by T lymphocytes immunized to the basic protein (BP) of the central nervous system myelin. To test the effect of heparins on the ability of T lymphocytes to cause autoimmune disease, we used T lymphocytes sensitized against BP, either as T cell lines (Cohen, I. R. Experimental autoimmune encephalomyelitis: Pathogenesis and prevention. In: Immunoregulatory Processes in Multiple Sclerosis and Experimental Allergic Encephalomyelitis. A. A. Vandenbark and J. C. M. Raus, eds. Elsevier Biomedical Res. Amsterdam. 7:91-125 (1985)) or as populations of lymph node cells from BP immunized rats.
# EAE was produced by inoculating Lewis rats with a T cell line of anti-BP T lymphocytes (10^6 cells) with anti-BP primed lymph node cells (10^7 cells) intravenously (Cohen, I. R. Experimental autoimmune encephalomyelitis: Pathogenesis and prevention. In: Immunoregulatory Processes in Multiple Sclerosis and Experimental Allergic Encephalomyelitis. A. A. Vandenbark and J. C. M. Raus, eds. Elsevier Biomedical Res. Amsterdam. 7:91-125 (1985)) One day before inoculation and daily for 10 days, the rats received either saline or the heparins.
# heparanase = test: Inhibition of T lymphocyte heparanase activity (degradation of 35S-labeled heparan sulfate of extracellular matrix); assay type: biochemical; details: medium of activated T lymphocytes, 35S-labeled extracellular matrix, various concentrations
# Experimental: Heparanase activity was induced into the extracellular medium bathing activated T lymphocytes and tested by incubating the medium with extracellular matrix whose heparan sulfate was labeled with ^35 S as described (Naparstek, Y., Cohen, I. R., Fuks, Z. and I. Vlodavsky. Activated T lymphocytes produce a matrix-degrading heparan sulphate endoglycosidase. Nature 310:241 (1984)). Inhibition of heparanase activity was tested by adding various concentrations of heparin or modified heparins to the reaction mixture and measuring the effect on degradation of the labeled heparin-sulfate as described (Naparstek, Y., Cohen, I. R., Fuks, Z. and I. Vlodavsky.
# Activated T lymphocytes produce a matrix-degrading heparan sulphate endoglycosidase, Nature 310:241 (1984)). Totally desulfated heparin and N-desulfated, N-acetylated heparin was prepared as described. (Ayotte, L., A. S. Perlin. NMR spectroscopic observations related to the function of sulfate groups in heparin. Calcium binding vs. biological activity. Carbohydrate Res. 145:267 (1986)).
# [2] = rat, in vivo, 10 mg/kg
# activated T lymphocytes = test: Traffic of 51Cr-labeled lymphocytes from subcutaneous site and in blood; assay type: in vivo; details: rats or mice
# Description: To test the effect of modified heparin on T lymphocyte traffic, we labelled the lymphocytes with ^51 Cr and measured the uptake of the labeled lymphocytes from a subcutaneous site and their persistence in the blood.
# Furthermore, treatment with the modified heparin led to persistence of labeled lymphocytes in the blood for 4-5 days, while the untreated rats or mice cleared the labeled lymphocytes from the blood in 1 day. Thus, treatment with modified heparin inhibited the ability of T lymphocytes to enter the blood vessels, and once in the blood vessels, prevented the T lymphocytes from exiting. This can be attributed to inhibition of the heparanase enzyme activity needed to penetrate the extracellular matrix of the vessel wall.
Substance,Inhibition of arthritis (adjuvant arthritis),Arthritis score (day 60) (adjuvant arthritis),Median survival of skin allograft (skin allografts) [days],"Duration of EAE ([1]; A: T cell line, None 4.2) [days]","Day of onset of EAE ([1]; A: T cell line, None 5.2)","% incidence of EAE ([1]; A: T cell line, None 100) [%]","Clinical score of EAE ([1]; A: T cell line, scale 1-4, None 2.4)","% incidence of EAE ([1]; C: primed lymph node cells, None 80) [%]","Inhibition of adjuvant arthritis (FIG. 4) (adjuvant arthritis; 0.02 mg per rat (0.1 mg/kg) s.c. once daily from day 9, 0.1 mg/kg)",Inhibition of adjuvant arthritis (FIG. 4) (adjuvant arthritis; 0.04 mg s.c. once daily from day 9),"Histologic examination of the joints (adjuvant arthritis; 0.1 mg/kg/day from day 21 to 51, control rats severe signs of inflammation)",Remission of established adjuvant arthritis (FIG. 5) (adjuvant arthritis; 0.1 mg/kg/day s.c. from day 21 to 51),Inhibition of degradation of heparan sulfate by heparanase (heparanase),Anti-coagulant effect (prothrombin time) [2],"Persistence of labeled lymphocytes in the site of injection into the tail (activated T lymphocytes; 0.05 mg/kg, control 1-2 days) [days]",Persistence of labeled lymphocytes in the blood (activated T lymphocytes; untreated cleared in 1 day) [days]
"O-desulfated, N-acetylated heparin",yes,0,,,,,,,,,,,,,,
"N-desulfated, N-acetylated heparin",yes,0,20,1.8,6.4,50,0.8,0,significant inhibition of arthritis; also recorded: maximum effect,ineffective,healthy joints,early remission of established adjuvant arthritis,yes,no anti-coagulant effect,5 to 6,4 to 5
totally desulfated heparin [Heparin: totally desulfated],no,5,,,,,,,,,,,no,,,
N-desulfated heparin,no,5,,,,,,,,,,,,,,

# Source: patent US5206223A, “Method for inhibiting heparanase activity” (Yeda Research and Development Co. Ltd., priority 1986, dated 1993)
